Experimental data as given in patent US8173635B2, “Kinase inhibitors” (Vertex Pharmaceuticals Incorporated, priority 2007, dated 2012).

Legend:
Format in all cases: biochemical
PKC alpha kinase = PKC alpha kinase (Homo sapiens, UniProt P17252); assay: PKC alpha kinase inhibition, coupled-enzyme NADH absorbance assay (Ki); settings: 130 μM ATP, 4.5 nM PKC alpha, 30° C.; read-out: Ki PKC alpha
Procedure: An assay buffer solution was prepared which consisted of 100 mM HEPES (pH 7.5), 10 mM MgCl2, 25 mM NaCl, 0.1 mM EDTA, 100 μM CaCl2 and 0.01% Brij. […] To 16 μL of this enzyme buffer, in a 384 well plate, was added 1 μL of VRT stock solution in DMSO. The mixture was allowed to equilibrate for 10 mins at 30° C. The enzyme reaction was initiated by the addition of 16 μL stock ATP solution prepared in assay buffer to a final assay concentration of 130 μM. Initial rate data was determined from the rate of change of absorbance at 340 nm (corresponding to stoichiometric consumption of NADH) using a Molecular Devices Spectramax plate reader (Sunnyvale, Calif.) over 15 mins at 30° C. […] Ki values were calculated from initial rate data by non-linear regression using the Prism software package (Prism 4.0a, Graphpad Software, San Diego, Calif.).

PKC delta kinase = PKC delta kinase (Homo sapiens, UniProt Q05655); assay: PKC delta kinase inhibition, coupled-enzyme NADH absorbance assay (Ki); settings: 150 μM ATP, 46 nM PKC delta, 30° C.; read-out: Ki PKC delta
Procedure: (§1) An assay buffer solution was prepared which consisted of 100 mM HEPES (pH 7.5), 10 mM MgCl2, 25 mM NaCl, 0.1 mM EDTA and 0.01% Brij. […] To 16 μL of this enzyme buffer, in a 384 well plate, was added 1 μL of VRT stock solution in DMSO. The mixture was allowed to equilibrate for 10 mins at 30° C. […] Ki values were calculated from initial rate data by non-linear regression using the Prism software package (Prism 4.0a, Graphpad Software, San Diego, Calif.).

PKC theta kinase = PKC theta kinase (Homo sapiens, UniProt Q04759); assay: PKC theta kinase inhibition, coupled-enzyme NADH absorbance assay (Ki); settings: 240 μM ATP, 18 nM PKC theta, 30° C.; read-out: Ki PKC theta
Procedure: as §1, with “To 60” for “To 16”, “added 2” for “added 1”

Sequence of PKC delta kinase (Q05655 whole entry): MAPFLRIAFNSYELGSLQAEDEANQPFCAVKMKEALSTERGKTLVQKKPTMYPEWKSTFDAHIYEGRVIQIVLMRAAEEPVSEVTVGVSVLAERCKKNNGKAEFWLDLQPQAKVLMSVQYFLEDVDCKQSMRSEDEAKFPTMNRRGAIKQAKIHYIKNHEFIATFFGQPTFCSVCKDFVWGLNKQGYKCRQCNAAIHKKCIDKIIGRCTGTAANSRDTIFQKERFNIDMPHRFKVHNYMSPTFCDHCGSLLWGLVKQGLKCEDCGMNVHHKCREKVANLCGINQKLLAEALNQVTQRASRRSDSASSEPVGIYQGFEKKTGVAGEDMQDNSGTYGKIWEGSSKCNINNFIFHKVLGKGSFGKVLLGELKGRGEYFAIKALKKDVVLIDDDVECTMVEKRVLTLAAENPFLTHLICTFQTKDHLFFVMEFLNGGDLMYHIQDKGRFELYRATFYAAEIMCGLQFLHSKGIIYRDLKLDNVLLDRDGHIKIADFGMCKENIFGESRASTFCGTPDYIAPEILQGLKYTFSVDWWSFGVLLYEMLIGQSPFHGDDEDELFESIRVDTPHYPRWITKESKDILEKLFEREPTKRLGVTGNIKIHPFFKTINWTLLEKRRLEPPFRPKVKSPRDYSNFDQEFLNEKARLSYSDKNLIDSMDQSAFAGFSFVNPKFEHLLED
Sequence of PKC theta kinase (Q04759 whole entry): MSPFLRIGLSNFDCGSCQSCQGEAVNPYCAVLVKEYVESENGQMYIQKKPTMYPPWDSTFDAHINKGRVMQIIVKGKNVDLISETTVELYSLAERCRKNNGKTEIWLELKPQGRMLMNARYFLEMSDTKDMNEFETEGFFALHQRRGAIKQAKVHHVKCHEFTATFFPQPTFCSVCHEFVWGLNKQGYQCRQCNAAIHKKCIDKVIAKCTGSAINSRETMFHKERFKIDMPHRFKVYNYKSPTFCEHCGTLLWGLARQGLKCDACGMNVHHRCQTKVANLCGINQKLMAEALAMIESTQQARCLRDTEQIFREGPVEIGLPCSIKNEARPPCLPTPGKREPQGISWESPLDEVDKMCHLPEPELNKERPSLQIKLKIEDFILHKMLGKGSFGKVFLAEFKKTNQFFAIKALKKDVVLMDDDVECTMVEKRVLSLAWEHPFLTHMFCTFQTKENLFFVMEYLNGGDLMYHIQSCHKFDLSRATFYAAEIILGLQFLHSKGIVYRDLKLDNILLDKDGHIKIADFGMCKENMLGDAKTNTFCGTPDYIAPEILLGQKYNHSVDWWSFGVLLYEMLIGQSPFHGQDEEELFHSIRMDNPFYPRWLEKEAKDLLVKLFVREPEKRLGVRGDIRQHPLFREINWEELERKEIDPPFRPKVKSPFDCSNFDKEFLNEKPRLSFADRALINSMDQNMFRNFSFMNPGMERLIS

| Structure (SMILES) | Ki (PKC alpha kinase) [µM] | Ki (PKC delta kinase) [µM] | Ki (PKC theta kinase) [µM] |
| --- | --- | --- | --- |
| CC(O)Cc1cc(-c2ccnc3[nH]ncc23)cc(C(C)(C)C#N)c1 (stereo not drawn) [Compound 79] | > 2.8 | > 2.8 | < 0.5 |
| N#C[C@]1(c2cccc(-c3ccnc4[nH]ncc34)c2)C[C@@H](O)C1 [Compound 220] | > 1.2 | > 2 | < 0.5 |
| CCC1(c2cc(C)cc(-c3ccnc4[nH]ncc34)c2)CNC(=O)O1 (stereo not drawn) [Compound 228] | < 0.5 | < 2.8 | < 0.05 |
| CCC(C)(CN)c1cccc(-c2ccnc3[nH]nc(Cl)c23)c1 (stereo not drawn) [Compound 204, 2-(3-(3-chloro-1H-pyrazolo[3,4-b]pyridin-4-yl)phenyl)-2-methylbutan-1-amine] | < 0.05 | < 0.05 | < 0.05 |
| CCC(F)(CN)c1cc(C)cc(-c2ccnc3[nH]nc(C(F)(F)F)c23)c1 (stereo not drawn) [Compound 293] | < 0.5 | < 0.5 | < 0.05 |
| N#CC(CCO)c1cccc(-c2ccnc3[nH]ncc23)c1 (stereo not drawn) [Compound 224] | > 1.2 | > 2 | < 0.5 |
| CCC(C)(CN)c1cc(CCCF)cc(-c2ccnc3[nH]ncc23)c1 (stereo not drawn) [Compound 160] | < 0.5 | < 2.8 | < 0.05 |
| COCC[C@](C)(CN)c1cccc(-c2ccnc3[nH]nc(C(F)(F)F)c23)c1 [Compound 287] | < 0.5 | < 2.8 | < 0.05 |
| CCC(C)(C#N)c1cc(-c2ccnc3[nH]ncc23)cc(C(C)F)c1 (stereo not drawn) [Compound 105] | < 2.8 | > 2 | < 0.5 |
| CC(C#N)(c1cccc(-c2ccnc3[nH]ncc23)c1)C1CCCC1 (stereo not drawn) [Compound 72] | > 2.8 | > 2.8 | < 2.8 |
| CC(CN)(CC(F)F)c1cccc(-c2ccnc3[nH]ncc23)c1 (stereo not drawn) [Compound 148] | < 0.5 | < 0.05 | < 0.05 |
| CC(C)(N)CCc1cc(-c2ccnc3[nH]nc(C(F)(F)F)c23)cc(C2(C#N)CC2)c1 [Compound 317] | > 1.2 | > 1.2 | < 0.05 |
| N#CC(c1cccc(-c2ccnc3[nH]ncc23)c1)N1CCOCC1 (stereo not drawn) [Compound 320] | > 1.2 | > 1.2 | > 0.7 |
| NCC1(c2cc(-c3ccnc4[nH]ncc34)cc(C(F)(F)F)c2)CCC1 [Compound 140] | < 2.8 | < 2.8 | < 0.5 |
| CCC(CN)c1cccc(-c2ccnc3[nH]ncc23)c1 (stereo not drawn) [Compound 232] | < 0.5 | < 0.5 | < 0.05 |
| CCC(C)(C#N)c1cc(CCC(F)F)cc(-c2ccnc3[nH]ncc23)c1 (stereo not drawn) [Compound 108] | > 1.2 | > 2 | < 0.5 |
| N#CC1(c2cc(CCCN)cc(-c3ccnc4[nH]ncc34)c2)CC1 [Compound 301] | < 2.8 | < 0.5 | < 0.05 |
| C#CCC(CC)(CN)c1cccc(-c2ccnc3[nH]ncc23)c1 (stereo not drawn) [Compound 178] | < 0.5 | < 0.5 | < 0.05 |
| CCCC(C)(CN)c1cccc(-c2ccnc3[nH]ncc23)c1 (stereo not drawn) [Compound 51] | < 0.5 | < 0.05 | < 0.05 |
| NC(CCC1CCCCC1)c1cccc(-c2ccnc3[nH]ncc23)c1 (stereo not drawn) [Compound 252] | > 1.2 | > 1.2 | > 0.7 |
| CC(C)=CC1(c2cccc(-c3ccnc4[nH]ncc34)c2)CCNC1 (stereo not drawn) [Compound 199] | < 0.5 | < 0.5 | < 0.05 |
| N#CC1(c2cccc(-c3ccnc4[nH]ncc34)c2)CCC1 [Compound 73] | < 2.8 | < 2.8 | < 0.5 |
| CCCc1cc(-c2ccnc3[nH]ncc23)cc(C2(CC#N)CCC2)c1 [Compound 125] | > 1.2 | > 2 | < 0.5 |
| CC(CN)(Cc1ccccc1)c1cccc(-c2ccnc3[nH]ncc23)c1 (stereo not drawn) [Compound 149] | < 0.5 | < 0.5 | < 0.05 |
| C=CC1(c2cccc(-c3ccnc4[nH]ncc34)c2)CCNC1 (stereo not drawn) [Compound 193, 4-(3-(3-Vinylpyrrolidin-3-yl)phenyl)-1H-pyrazolo[3,4-b]pyridine] | < 0.5 | < 0.5 | < 0.5 |
| CCc1cc(-c2ccnc3[nH]nc(C(F)(F)F)c23)cc(C2(CN)CCC2)c1 [Compound 272] | < 0.5 | < 2.8 | < 0.05 |
